We go through seven compounds from PubChem BioAssay (NCI).

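In this assay, cells in 96-well plates receive the compound at five concentrations for 48 hours. Endpoints are linearly interpolated between the surrounding concentrations. TGI is the concentration that stops growth completely.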

Holding throughout (assay): inhibition of tumour cell growth, NCI panel, 48 h
Test [1] has as its system IGROV1 ovarian.
In test [2] the test system is MOLT-4 leukemia.
Test [3] relates to A498 renal.
Test [4] relates to UACC-62 melanoma.
The test system of test [5] is COLO 205 colon.
The test system of test [6] is EKVX NSCLC.
Test [7] deals with SNB-75 CNS.
Test [8] relates to K-562 leukemia.
For test [9], the system named is MCF7 breast.
The test system of test [10] is NCI-H522 lung.
Test [11] deals with 786-0 renal.
Test [12] deals with HCC-2998 colon.

Regarding `CC1CCCN1CCCOC(=O)c1ccc(OC2C=CCCC2)cc1` (centres undefined), the TGI was 58.4 µM in test [1]; 55.3 µM in test [2]; above 100 µM in test [3]; above 100 µM in test [4]; 31.4 µM in test [5]; above 100 µM in [6]. Also, the TGI worked out at 34.6 µM in test [7]; 38.9 µM in test [8]; 49.6 µM in test [9]; 54 µM in [10]; 40.4 µM in [11]; 64.9 µM in [12].
As to `CC(=O)C(C(C)=O)[C@H]1OC(C)(C)O[C@H]1[C@H]1COC(C)(C)O1`, the TGI in test [1] was above 100 µM; in test [2] it was above 100 µM; in [3], above 100 µM; in [4], above 100 µM; in test [5], 32.5 µM; in test [6] it was above 100 µM. Further, the TGI in test [7] was above 100 µM; in test [8], above 100 µM; in test [9] it was above 100 µM; in test [10], 93.3 µM; in test [11], above 100 µM; in test [12], 86 µM.
With `CCOC(=O)c1cn(CC)c2ccc3c(c2c1=O)S(=O)(=O)C=C3`, the TGI in [1], in test [2], in [3], in test [4], in test [5] and in test [6] was above 100 µM each time. Further, the TGI in test [7], in test [8], in [9], in test [10], in [11] and in test [12] was above 100 µM in each case.
With `C=CCOC(=O)N1c2ccc(O)cc2[C@@]23O[C@@]24[C@@H]1C#C/C=C\C#C[C@]3(O)C(=O)C[C@@H]4C`, the TGI in test [1] was above 100 µM; in test [2] it was 49.4 µM; in test [3] it was above 100 µM; in test [4], above 100 µM; in test [5], above 100 µM; in test [6], above 100 µM. Besides, the TGI in test [7], in test [8], in test [9], in test [10], in test [11] and in test [12] was above 100 µM throughout.
Turning to `c1cc2c(cc1[C@@H]1OC[C@@H]3[C@H]1CO[C@H]3c1ccc3c(c1)OCO3)OCO2`, the TGI in [1] was above 100 µM; in test [2] it was above 100 µM; in test [3], above 100 µM; in test [4] it was above 100 µM; in test [5], above 100 µM; in test [6], 83.6 µM. For the same compound, the TGI in test [7], in test [8], in test [9], in test [10], in test [11] and in test [12] was above 100 µM throughout.
Regarding `Cc1ccc(NCCN(C)C)c2c(=O)c3cc(O)ccc3sc12`, the TGI is 17.2 µM in test [1]; 3.2 µM in [2]; 21.9 µM in test [3]; 9.78 µM in test [4]; 23.2 µM in test [5]; 27.6 µM in test [6]. Moreover, the TGI stood at 9.24 µM in test [7]; 11.7 µM in test [8]; 1.59 µM in test [9]; 11.1 µM in [10]; 9.07 µM in test [11]; 10.4 µM in test [12].
As to `O=C1c2ccccc2C(=O)c2sc(Nc3cc(Cl)ccc3Cl)nc21`, the TGI in test [1] is 24.3 µM; in test [2] it was above 30.4 µM; in [3], 41.9 µM; in test [4] it was 6.27 µM; in [5], 34 µM; in test [6], 26.7 µM. Moreover, the TGI in [7] was 38.2 µM; in test [8], above 31.8 µM; in test [9], 3.7 µM; in test [10] it was 18.3 µM; in test [11], 22.6 µM; in [12], 20.7 µM.
